Assay results published in patent US8957078B2, “Compounds useful as inhibitors of ATR kinase” (Vertex Pharmaceuticals Incorporated, priority 2013, dated 2015).

Assays:
[1] = system: HCT116 colorectal cancer cells; assay: Cisplatin Sensitization Assay (96 h cell viability MTS); assay type: cell-based; conditions: concentration of compound required to reduce the IC50 of Cisplatin alone by at least 3-fold; HCT116, 96 h MTS
Summary of the method: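 HCT116 cells treated 96 h at 37 °C with compound and cisplatin together as a full matrix of 2-fold dilutions, each from 10 μM final top concentration. Viability by MTS, absorbance 490 nm. Value reported: compound concentration lowering cisplatin IC50 at least 3-fold.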

[2] = biological target: T1, ATR kinase (full-length ATR) (Homo sapiens, UniProt Q13535); assay: ATR Inhibition Assay (radioactive-phosphate incorporation); assay type: biochemical; conditions: Ki(app); 5 nM full-length ATR, 10 μM ATP, 800 μM target peptide, 25° C.
T1 construct: in the presence of 5 nM full-length ATR
T1 sequence (Q13535 whole entry): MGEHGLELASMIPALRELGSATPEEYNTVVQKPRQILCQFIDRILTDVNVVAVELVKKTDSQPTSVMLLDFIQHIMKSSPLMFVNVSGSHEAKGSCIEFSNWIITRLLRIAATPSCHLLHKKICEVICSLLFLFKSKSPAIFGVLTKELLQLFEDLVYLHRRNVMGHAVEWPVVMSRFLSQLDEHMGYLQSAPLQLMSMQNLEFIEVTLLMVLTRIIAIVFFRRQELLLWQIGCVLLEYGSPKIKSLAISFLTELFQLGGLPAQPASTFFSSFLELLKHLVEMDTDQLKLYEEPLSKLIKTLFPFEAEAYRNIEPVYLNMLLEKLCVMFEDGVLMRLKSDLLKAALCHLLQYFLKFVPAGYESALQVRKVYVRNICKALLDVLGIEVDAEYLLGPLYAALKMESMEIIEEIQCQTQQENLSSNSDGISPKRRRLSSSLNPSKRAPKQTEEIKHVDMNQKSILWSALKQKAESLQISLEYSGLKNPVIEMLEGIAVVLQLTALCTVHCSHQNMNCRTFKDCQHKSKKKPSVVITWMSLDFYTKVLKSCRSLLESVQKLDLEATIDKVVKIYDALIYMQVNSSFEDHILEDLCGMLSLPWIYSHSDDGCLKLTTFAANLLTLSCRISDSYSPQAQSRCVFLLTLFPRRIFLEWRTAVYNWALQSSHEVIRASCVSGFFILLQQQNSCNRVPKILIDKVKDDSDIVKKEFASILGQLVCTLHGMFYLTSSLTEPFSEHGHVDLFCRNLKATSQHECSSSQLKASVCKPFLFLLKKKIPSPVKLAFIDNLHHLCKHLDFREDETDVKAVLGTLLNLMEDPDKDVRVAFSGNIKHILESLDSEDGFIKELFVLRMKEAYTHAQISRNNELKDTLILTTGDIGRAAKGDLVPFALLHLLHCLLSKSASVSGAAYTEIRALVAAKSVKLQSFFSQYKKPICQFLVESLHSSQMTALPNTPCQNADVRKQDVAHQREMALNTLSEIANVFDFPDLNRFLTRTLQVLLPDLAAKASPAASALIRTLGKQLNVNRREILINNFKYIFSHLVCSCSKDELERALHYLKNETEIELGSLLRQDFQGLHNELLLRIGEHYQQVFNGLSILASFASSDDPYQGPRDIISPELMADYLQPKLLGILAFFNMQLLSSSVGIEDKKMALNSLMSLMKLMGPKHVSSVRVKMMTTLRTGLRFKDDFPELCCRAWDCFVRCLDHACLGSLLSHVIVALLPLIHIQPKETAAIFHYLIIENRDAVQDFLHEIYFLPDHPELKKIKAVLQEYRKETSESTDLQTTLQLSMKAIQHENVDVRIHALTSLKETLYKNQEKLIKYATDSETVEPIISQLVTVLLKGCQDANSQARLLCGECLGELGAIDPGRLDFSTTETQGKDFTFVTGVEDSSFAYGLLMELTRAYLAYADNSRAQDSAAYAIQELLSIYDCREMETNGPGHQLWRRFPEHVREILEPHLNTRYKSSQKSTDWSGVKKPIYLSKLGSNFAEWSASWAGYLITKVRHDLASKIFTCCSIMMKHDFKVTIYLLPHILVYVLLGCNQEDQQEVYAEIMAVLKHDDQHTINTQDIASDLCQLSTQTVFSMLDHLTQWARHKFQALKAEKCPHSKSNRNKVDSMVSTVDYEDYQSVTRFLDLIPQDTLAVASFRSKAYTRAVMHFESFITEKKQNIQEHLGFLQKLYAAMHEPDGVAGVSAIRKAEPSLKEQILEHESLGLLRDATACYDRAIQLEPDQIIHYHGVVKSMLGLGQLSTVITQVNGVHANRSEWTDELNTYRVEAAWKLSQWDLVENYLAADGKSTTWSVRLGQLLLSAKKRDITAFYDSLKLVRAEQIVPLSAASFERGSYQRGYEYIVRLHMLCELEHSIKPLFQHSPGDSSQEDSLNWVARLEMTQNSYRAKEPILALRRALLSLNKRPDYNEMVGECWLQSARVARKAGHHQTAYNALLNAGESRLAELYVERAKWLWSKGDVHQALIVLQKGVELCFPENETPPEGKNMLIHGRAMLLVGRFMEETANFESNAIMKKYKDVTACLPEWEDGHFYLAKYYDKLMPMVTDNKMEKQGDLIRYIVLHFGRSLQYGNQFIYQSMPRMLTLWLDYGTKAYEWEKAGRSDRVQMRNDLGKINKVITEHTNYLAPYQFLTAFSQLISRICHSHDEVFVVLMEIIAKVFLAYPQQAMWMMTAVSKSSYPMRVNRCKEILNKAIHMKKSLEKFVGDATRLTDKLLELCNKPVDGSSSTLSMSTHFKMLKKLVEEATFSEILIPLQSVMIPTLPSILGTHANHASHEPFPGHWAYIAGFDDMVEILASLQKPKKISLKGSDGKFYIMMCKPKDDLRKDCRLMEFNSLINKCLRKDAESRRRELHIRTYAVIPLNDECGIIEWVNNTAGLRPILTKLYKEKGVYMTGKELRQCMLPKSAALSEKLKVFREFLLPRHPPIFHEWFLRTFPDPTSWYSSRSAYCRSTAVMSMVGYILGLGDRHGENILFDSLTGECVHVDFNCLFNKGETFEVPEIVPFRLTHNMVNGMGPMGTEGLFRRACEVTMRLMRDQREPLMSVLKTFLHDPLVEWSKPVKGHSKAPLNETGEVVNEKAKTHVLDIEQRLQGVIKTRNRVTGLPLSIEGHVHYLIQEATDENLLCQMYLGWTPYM

Cc1ncccc1-c1c(C)nsc1NC(=O)c1c(N)nn2cc(F)cnc12 [I-E-1, 2-amino-6-fluoro-N-(3-methyl-4-(2-methylpyridin-3-yl)isothiazol-5-yl)pyrazolo[1,5-a]pyrimidine-3-carboxamide]
Cisplatin Sensitization Assay [1]: +++ (Compounds with a Cisplatin sensitization value of <0.02 μM are marked with “+++.”) | Ki [2]: < 0.01 µM

CN1CC[C@@H](Oc2ncncc2NC(=O)c2c(N)nn3cc(F)cnc23)C1 [I-A-10, (R)-2-amino-6-fluoro-N-(4-((1-methylpyrrolidin-3-yl)oxy)pyrimidin-5-yl)pyrazolo[1,5-a]pyrimidine-3-carboxamide]
Cisplatin Sensitization Assay [1]: + (Compounds with a Cisplatin sensitization value >0.2 μM but <5 μM are marked with “+.”) | Ki [2]: 0.01 to 1 µM

Cc1ncccc1-c1cnccc1NC(=O)c1c(N)nn2cc(F)cnc12 [I-C-5, 2-amino-6-fluoro-N-(2′-methyl-[3,3′-bipyridin]-4-yl)pyrazolo[1,5-a]pyrimidine-3-carboxamide]
Cisplatin Sensitization Assay [1]: ++ (Compounds with a Cisplatin sensitization value >0.02 μM but <0.2 μM are marked with “++.”) | Ki [2]: 0.01 to 1 µM

Nc1nn2cc(F)cnc2c1C(=O)Nc1cnncc1N1CCN(C2COC2)CC1 [I-B-2, 2-amino-6-fluoro-N-(5-(4-(oxetan-3-yl)piperazin-1-yl)pyridazin-4-yl)pyrazolo[1,5-a]pyrimidine-3-carboxamide]
Cisplatin Sensitization Assay [1]: ++ (Compounds with a Cisplatin sensitization value >0.02 μM but <0.2 μM are marked with “++.”) | Ki [2]: 0.01 to 1 µM

Cc1cc(-c2c(C)nsc2NC(=O)c2c(N)nn3cc(F)cnc23)n(C)n1 [I-E-16, 2-amino-N-(4-(1,3-dimethyl-1H-pyrazol-5-yl)-3-methylisothiazol-5-yl)-6-fluoropyrazolo[1,5-a]pyrimidine-3-carboxamide]
Cisplatin Sensitization Assay [1]: +++ (Compounds with a Cisplatin sensitization value of <0.02 μM are marked with “+++.”) | Ki [2]: 0.01 to 1 µM

Nc1nn2cc(F)cnc2c1C(=O)Nc1cncn1-c1ccccc1 [I-D-2, 2-amino-6-fluoro-N-(1-phenyl-1H-imidazol-5-yl)pyrazolo[1,5-a]pyrimidine-3-carboxamide]
Cisplatin Sensitization Assay [1]: +++ (Compounds with a Cisplatin sensitization value of <0.02 μM are marked with “+++.”) | Ki [2]: 0.01 to 1 µM

Nc1nn2cc(F)cnc2c1C(=O)Nc1ccncc1N1CCC(C(=O)N2CCN(C3COC3)CC2)CC1 [I-C-9, 2-amino-6-fluoro-N-(3-(4-(4-(oxetan-3-yl)piperazine-1-carbonyl)piperidin-1-yl)pyridin-4-yl)pyrazolo[1,5-a]pyrimidine-3-carboxamide]
Cisplatin Sensitization Assay [1]: ++ (Compounds with a Cisplatin sensitization value >0.02 μM but <0.2 μM are marked with “++.”) | Ki [2]: 0.01 to 1 µM

Cc1nsc(NC(=O)c2c(N)nn3cc(F)cnc23)c1-c1cncnc1 [I-E-11, 2-amino-6-fluoro-N-(3-methyl-4-(pyrimidin-5-yl)isothiazol-5-yl)pyrazolo[1,5-a]pyrimidine-3-carboxamide]
Cisplatin Sensitization Assay [1]: ++ (Compounds with a Cisplatin sensitization value >0.02 μM but <0.2 μM are marked with “++.”) | Ki [2]: 0.01 to 1 µM

Nc1nn2cc(F)cnc2c1C(=O)Nc1ccncc1N1CCC(C(=O)N2CCN3CCC2CC3)CC1 [I-C-7, N-(3-(4-(1,4-diazabicyclo[3.2.2]nonane-4-carbonyl)piperidin-1-yl)pyridin-4-yl)-2-amino-6-fluoropyrazolo[1,5-a]pyrimidine-3-carboxamide]
Cisplatin Sensitization Assay [1]: +++ (Compounds with a Cisplatin sensitization value of <0.02 μM are marked with “+++.”) | Ki [2]: 0.01 to 1 µM

Cc1nncc(NC(=O)c2c(N)nn3cc(F)cnc23)c1N1CCC(C(=O)N2CCN(C)CC2)CC1 [I-B-14, 2-amino-6-fluoro-N-(6-methyl-5-(4-(4-methylpiperazine-1-carbonyl)piperidin-1-yl)pyridazin-4-yl)pyrazolo[1,5-a]pyrimidine-3-carboxamide]
Cisplatin Sensitization Assay [1]: +++ (Compounds with a Cisplatin sensitization value of <0.02 μM are marked with “+++.”) | Ki [2]: 0.01 to 1 µM

CC(=O)N1CC=C(c2c(C)nsc2NC(=O)c2c(N)nn3cc(F)cnc23)CC1 [I-E-9, N-(4-(1-acetyl-1,2,3,6-tetrahydropyridin-4-yl)-3-methylisothiazol-5-yl)-2-amino-6-fluoropyrazolo[1,5-a]pyrimidine-3-carboxamide]
Cisplatin Sensitization Assay [1]: +++ (Compounds with a Cisplatin sensitization value of <0.02 μM are marked with “+++.”) | Ki [2]: 0.01 to 1 µM

CN1CCN(C(=O)C2CCN(c3cnccc3NC(=O)c3c(N)nn4cc(F)cnc34)CC2)CC1 [I-C-3, 2-amino-6-fluoro-N-(3-(4-(4-methylpiperazine-1-carbonyl)piperidin-1-yl)pyridin-4-yl)pyrazolo[1,5-a]pyrimidine-3-carboxamide]
Cisplatin Sensitization Assay [1]: ++ (Compounds with a Cisplatin sensitization value >0.02 μM but <0.2 μM are marked with “++.”) | Ki [2]: 0.01 to 1 µM

Cc1nsc(NC(=O)c2c(N)nn3cc(F)cnc23)c1-c1ccccc1 [I-E-7, 2-amino-6-fluoro-N-(3-methyl-4-phenylisothiazol-5-yl)pyrazolo[1,5-a]pyrimidine-3-carboxamide]
Cisplatin Sensitization Assay [1]: +++ (Compounds with a Cisplatin sensitization value of <0.02 μM are marked with “+++.”) | Ki [2]: < 0.01 µM

Cc1nsc(NC(=O)c2c(N)nn3cc(F)cnc23)c1-c1cnn(C)c1 [I-E-12, 2-amino-6-fluoro-N-(3-methyl-4-(1-methyl-1H-pyrazol-4-yl)isothiazol-5-yl)pyrazolo[1,5-a]pyrimidine-3-carboxamide]
Cisplatin Sensitization Assay [1]: ++ (Compounds with a Cisplatin sensitization value >0.02 μM but <0.2 μM are marked with “++.”) | Ki [2]: 0.01 to 1 µM

Cc1ncccc1-c1cnncc1NC(=O)c1c(N)nn2cc(F)cnc12 [I-B-4, 2-amino-6-fluoro-N-(5-(2-methylpyridin-3-yl)pyridazin-4-yl)pyrazolo[1,5-a]pyrimidine-3-carboxamide]
Cisplatin Sensitization Assay [1]: +++ (Compounds with a Cisplatin sensitization value of <0.02 μM are marked with “+++.”) | Ki [2]: 0.01 to 1 µM

Cc1cc(-c2c(C)nsc2NC(=O)c2c(N)nn3cc(F)cnc23)ccn1 [I-E-13, 2-amino-6-fluoro-N-(3-methyl-4-(2-methylpyridin-4-yl)isothiazol-5-yl)pyrazolo[1,5-a]pyrimidine-3-carboxamide]
Cisplatin Sensitization Assay [1]: +++ (Compounds with a Cisplatin sensitization value of <0.02 μM are marked with “+++.”) | Ki [2]: 0.01 to 1 µM

Nc1nn2cc(F)cnc2c1C(=O)Nc1cnncc1N1CCOCC1 [I-B-12, 2-amino-6-fluoro-N-(5-morpholinopyridazin-4-yl)pyrazolo[1,5-a]pyrimidine-3-carboxamide]
Cisplatin Sensitization Assay [1]: ++ (Compounds with a Cisplatin sensitization value >0.02 μM but <0.2 μM are marked with “++.”) | Ki [2]: 0.01 to 1 µM

Nc1nn2cc(F)cnc2c1C(=O)Nc1cnncc1N1CCC(F)CC1 [I-B-20, 2-amino-6-fluoro-N-(5-(4-fluoropiperidin-1-yl)pyridazin-4-yl)pyrazolo[1,5-a]pyrimidine-3-carboxamide]
Cisplatin Sensitization Assay [1]: +++ (Compounds with a Cisplatin sensitization value of <0.02 μM are marked with “+++.”) | Ki [2]: 0.01 to 1 µM

Cc1nsc(NC(=O)c2c(N)nn3cc(F)cnc23)c1C1=CCN(C)CC1 [I-E-5, 2-amino-6-fluoro-N-(3-methyl-4-(1-methyl-1,2,3,6-tetrahydropyridin-4-yl)isothiazol-5-yl)pyrazolo[1,5-a]pyrimidine-3-carboxamide]
Cisplatin Sensitization Assay [1]: +++ (Compounds with a Cisplatin sensitization value of <0.02 μM are marked with “+++.”) | Ki [2]: 0.01 to 1 µM

COc1ncncc1NC(=O)c1c(N)nn2ccc(OCCN(C)C)nc12 [I-A-16, 2-amino-5-(2-(dimethylamino)ethoxy)-N-(4-methoxypyrimidin-5-yl)pyrazolo[1,5-a]pyrimidine-3-carboxamide]
Cisplatin Sensitization Assay [1]: + (Compounds with a Cisplatin sensitization value >0.2 μM but <5 μM are marked with “+.”) | Ki [2]: 1 to 5 µM

Cc1nsc(NC(=O)c2c(N)nn3cc(F)cnc23)c1-c1ccncc1 [I-E-14, 2-amino-6-fluoro-N-(3-methyl-4-(pyridin-4-yl)isothiazol-5-yl)pyrazolo[1,5-a]pyrimidine-3-carboxamide]
Cisplatin Sensitization Assay [1]: +++ (Compounds with a Cisplatin sensitization value of <0.02 μM are marked with “+++.”) | Ki [2]: 0.01 to 1 µM

Cc1nn(C)cc1-c1c(C)nsc1NC(=O)c1c(N)nn2cc(F)cnc12 [I-E-18, 2-amino-N-(4-(1,3-dimethyl-1H-pyrazol-4-yl)-3-methylisothiazol-5-yl)-6-fluoropyrazolo[1,5-a]pyrimidine-3-carboxamide]
Cisplatin Sensitization Assay [1]: +++ (Compounds with a Cisplatin sensitization value of <0.02 μM are marked with “+++.”) | Ki [2]: 0.01 to 1 µM

CN1CCN(C(=O)C2CCN(c3ncncc3NC(=O)c3c(N)nn4cc(F)cnc34)CC2)CC1 [I-A-19, 2-amino-6-fluoro-N-(4-(4-(4-methylpiperazine-1-carbonyl)piperidin-1-yl)pyrimidin-5-yl)pyrazolo[1,5-a]pyrimidine-3-carboxamide]
Cisplatin Sensitization Assay [1]: + (Compounds with a Cisplatin sensitization value >0.2 μM but <5 μM are marked with “+.”) | Ki [2]: 1 to 5 µM

Cc1nsc(NC(=O)c2c(N)nn3cc(F)cnc23)c1CN1CCOCC1 [I-E-15, 2-amino-6-fluoro-N-(3-methyl-4-(morpholinomethyl)isothiazol-5-yl)pyrazolo[1,5-a]pyrimidine-3-carboxamide]
Cisplatin Sensitization Assay [1]: +++ (Compounds with a Cisplatin sensitization value of <0.02 μM are marked with “+++.”) | Ki [2]: 0.01 to 1 µM

Nc1nn2cc(F)cnc2c1C(=O)Nc1cncnc1O[C@H]1CN2CCC1CC2 [I-A-3, (R)-2-amino-6-fluoro-N-(4-(quinuclidin-3-yloxy)pyrimidin-5-yl)pyrazolo[1,5-a]pyrimidine-3-carboxamide]
Cisplatin Sensitization Assay [1]: ++ (Compounds with a Cisplatin sensitization value >0.02 μM but <0.2 μM are marked with “++.”) | Ki [2]: 0.01 to 1 µM
